{"source": "patent US5262519A", "about": "“GRF analogs XI” (The Salk Institute for Biological Studies, priority 1991, dated 1993)", "note": "Square brackets hold non-standard residues; d marks the D form. Ends that are not written are not given here. Peptide text beside a SMILES is read from it. Nle = CCCC[C@H](N)C(=O)O", "data": [{"test_system": "cells of rat pituitary glands", "assay": "in vitro release of growth hormone from cultured rat pituitary cells, GH measured by radioimmunoassay", "type": "cell-based", "settings": "potency for GH release relative to standard hGRF(1-40)-OH = 1.0; equimolar concentrations; 3 to 4 hours incubation; range in parentheses", "procedure": "To determine the relative effectiveness of synthetic peptides to promote the release of growth hormone, in vitro assays are carried out using synthetic hpGRF(1-40)-OH as a standard in side-by-side comparison with equimolar concentrations of the representative analogs which have been synthesized. Cultures are used which include cells of rat pituitary glands removed some three to five days previously. Such cultures are considered optimal for the secretion of growth hormone and are used for the comparative testing, in the general manner described in Vale et al. Endocrinology, 91, 562-572 (1972) and as more particularly described in Vale et al. Endocrinology, 112, 1553-1555 (1983). Incubation with the substance to be tested is carried out for 3 to 4 hours, and aliquots of the culture medium are removed and processed to measure their contents in immunoreactive GH(ir GH) by a well-characterized radioimmunoassay.", "values": [{"compound": "CCCC[C@H](NC(=O)[C@@H](NC(=O)[C@H](CC(=O)O)NC(=O)[C@H](CCC(N)=O)NC(=O)[C@H](CC(C)C)NC(=O)[C@H](CC(C)C)NC(=O)[C@H](CCCCN)NC(=O)[C@H](CCCNC(=N)N)NC(=O)[C@H](C)NC(=O)[C@H](CO)NC(=O)[C@H](CC(C)C)NC(=O)[C@H](CCC(N)=O)NC(=O)CNC(=O)[C@H](CC(C)C)NC(=O)[C@@H](NC(=O)[C@H](CCCCN)NC(=O)[C@H](CCCNC(=N)N)NC(=O)[C@H](Cc1ccc(O)cc1)NC(=O)[C@H](CO)NC(=O)[C@H](C)NC(=O)[C@@H](NC(=O)[C@H](Cc1ccccc1)NC(=O)[C@@H](NC(=O)[C@H](C)NC(=O)[C@H](CC(=O)O)NC(=O)[C@H](C)NC(=O)[C@@H](N)Cc1ccc(O)cc1)[C@@H](C)CC)[C@@H](C)O)C(C)C)[C@@H](C)CC)C(=O)N[C@@H](CO)C(=O)N[C@@H](CCCNC(=N)N)C(N)=O", "note": "[Example No. 1, [Ala^8, Nle^27]-hGRF(1-29)-NH2] (H-YADAIFTASYRKVLGQLSARKLLQDI[Nle]SR-NH2)", "In Vitro Potencies": "2.143(1.178-4.065)"}, {"compound": "CCCC[C@H](NC(=O)[C@@H](NC(=O)[C@H](CC(=O)O)NC(=O)[C@H](C)NC(=O)[C@H](CC(C)C)NC(=O)[C@H](CC(C)C)NC(=O)[C@H](CCCCN)NC(=O)[C@H](CCCNC(=N)N)NC(=O)[C@H](C)NC(=O)[C@H](CO)NC(=O)[C@H](CC(C)C)NC(=O)[C@H](CCC(N)=O)NC(=O)CNC(=O)[C@H](CC(C)C)NC(=O)[C@@H](NC(=O)[C@H](CCCCN)NC(=O)[C@H](CCCNC(=N)N)NC(=O)[C@H](Cc1ccc(O)cc1)NC(=O)[C@H](CO)NC(=O)[C@H](CC(N)=O)NC(=O)[C@@H](NC(=O)[C@H](Cc1ccccc1)NC(=O)[C@@H](NC(=O)[C@H](C)NC(=O)[C@H](CC(=O)O)NC(=O)[C@H](C)NC(=O)[C@@H](N)Cc1ccc(O)cc1)[C@@H](C)CC)[C@@H](C)O)C(C)C)[C@@H](C)CC)C(=O)N[C@@H](CO)C(=O)N[C@@H](CCCNC(=N)N)C(N)=O", "note": "[Example No. 3, [Ala^24, Nle^27]-hGRF(1-29)-NH2] (H-YADAIFTNSYRKVLGQLSARKLLADI[Nle]SR-NH2)", "In Vitro Potencies": "1.345(0.595-2.068)"}, {"compound": "CCCC[C@H](NC(=O)[C@@H](NC(=O)[C@H](C)NC(=O)[C@H](CCC(N)=O)NC(=O)[C@H](CC(C)C)NC(=O)[C@H](CC(C)C)NC(=O)[C@H](CCCCN)NC(=O)[C@H](CCCNC(=N)N)NC(=O)[C@H](C)NC(=O)[C@H](CO)NC(=O)[C@H](CC(C)C)NC(=O)[C@H](CCC(N)=O)NC(=O)CNC(=O)[C@H](CC(C)C)NC(=O)[C@@H](NC(=O)[C@H](CCCCN)NC(=O)[C@H](CCCNC(=N)N)NC(=O)[C@H](Cc1ccc(O)cc1)NC(=O)[C@H](CO)NC(=O)[C@H](CC(N)=O)NC(=O)[C@@H](NC(=O)[C@H](Cc1ccccc1)NC(=O)[C@@H](NC(=O)[C@H](C)NC(=O)[C@H](CC(=O)O)NC(=O)[C@H](C)NC(=O)[C@@H](N)Cc1ccc(O)cc1)[C@@H](C)CC)[C@@H](C)O)C(C)C)[C@@H](C)CC)C(=O)N[C@@H](CO)C(=O)N[C@@H](CCCNC(=N)N)C(N)=O", "note": "[Example No. 4, [Ala^25, Nle^27]-hGRF(1-29)-NH2] (H-YADAIFTNSYRKVLGQLSARKLLQAI[Nle]SR-NH2)", "In Vitro Potencies": "1.34(0.837-2.190)"}, {"compound": "CC[C@H](C)[C@H](NC(=O)[C@H](C)NC(=O)[C@H](CC(=O)O)NC(=O)[C@H](C)NC(=O)[C@@H](N)Cc1ccc(O)cc1)C(=O)N[C@@H](Cc1ccccc1)C(=O)N[C@H](C(=O)N[C@@H](CC(N)=O)C(=O)N[C@@H](CO)C(=O)N[C@@H](Cc1ccc(O)cc1)C(=O)N[C@@H](CCCNC(=N)N)C(=O)N[C@@H](CCCCN)C(=O)N[C@H](C(=O)N[C@@H](CC(C)C)C(=O)NCC(=O)N[C@@H](CCC(N)=O)C(=O)N[C@@H](CC(C)C)C(=O)N[C@@H](CO)C(=O)N[C@@H](C)C(=O)N[C@@H](CCCNC(=N)N)C(=O)N[C@@H](CCCCN)C(=O)N[C@@H](CC(C)C)C(=O)N[C@@H](CC(C)C)C(=O)N[C@@H](CCC(N)=O)C(=O)N[C@@H](CC(=O)O)C(=O)N[C@H](C(=O)N[C@@H](CCSC)C(=O)N[C@@H](CO)C(=O)N[C@@H](CCCNC(=N)N)C(=O)N[C@@H](CCC(N)=O)C(=O)N[C@@H](CCC(N)=O)C(=O)NCC(=O)N[C@@H](CCC(=O)O)C(=O)N[C@@H](CO)C(=O)N[C@@H](CC(N)=O)C(=O)N[C@@H](CCC(N)=O)C(=O)N[C@@H](CCC(=O)O)C(=O)N[C@@H](CCCNC(=N)N)C(=O)NCC(=O)N[C@@H](C)C(=O)O)[C@@H](C)CC)C(C)C)[C@@H](C)O", "note": "[hGRF(1-40)-OH, reference compound]", "In Vitro Potencies": 1.0}, {"compound": "[Ala^16, Nle^27 ]-hGRF(1-29)-NH2 (YADAIFTNSYRKVLGALSARKLLQDI[Nle]SR-NH2; N-terminus assumed; SMILES CCCC[C@H](NC(=O)[C@@H](NC(=O)[C@H](CC(=O)O)NC(=O)[C@H](CCC(N)=O)NC(=O)[C@H](CC(C)C)NC(=O)[C@H](CC(C)C)NC(=O)[C@H](CCCCN)NC(=O)[C@H](CCCNC(=N)N)NC(=O)[C@H](C)NC(=O)[C@H](CO)NC(=O)[C@H](CC(C)C)NC(=O)[C@H](C)NC(=O)CNC(=O)[C@H](CC(C)C)NC(=O)[C@@H](NC(=O)[C@H](CCCCN)NC(=O)[C@H](CCCNC(=N)N)NC(=O)[C@H](Cc1ccc(O)cc1)NC(=O)[C@H](CO)NC(=O)[C@H](CC(N)=O)NC(=O)[C@@H](NC(=O)[C@H](Cc1ccccc1)NC(=O)[C@@H](NC(=O)[C@H](C)NC(=O)[C@H](CC(=O)O)NC(=O)[C@H](C)NC(=O)[C@@H](N)Cc1ccc(O)cc1)[C@@H](C)CC)[C@@H](C)O)C(C)C)[C@@H](C)CC)C(=O)N[C@@H](CO)C(=O)N[C@@H](CCCNC(=N)N)C(N)=O) [Example No. 2]", "In Vitro Potencies": "1.502(0.727-2.859)"}]}]}
